From patent publication US20210308102A1 (priority 2018, published 2021) come the findings set out here.

Each structure is given as a SMILES string.

Details in all cases: human, in vivo
The test system of series [1] is Presbyopic subjects.
Series [2] deals with Presbyopic subjects. The source holds these as a separate data set.
In series [3] the test system is Presbyopic subjects. The source holds these as a separate data set.

On to `CN(C)C(=O)Oc1cccc([N+](C)(C)C)c1` [compound 1, neostigmine], for which, in the series on Presbyopic subjects [1], the “share of the subjects with no tolerance problems” value is “One third” and the “time until symptoms gradually alleviated” value is 30 min.

`CNC(=O)Oc1ccc2c(c1)[C@]1(C)CCN(C)[C@@H]1N2C` [compound 2, physostigmine]: in the series on Presbyopic subjects [2], the “effect on miosis, 0.25% eye drops compared with 1.5% eye drops” value is reported as “more than 1.5% compound 2 eye drops”; the “time at which efficacy reached the highest level” value was determined as 2 h; the “time at which efficacy was still present” value is on record as at least 6 h. Further, the “improvement of distance corrected near visual acuity, 0.25% eye drops compared with 1.5% eye drops” value in the series with Presbyopic subjects [3] was “more than 1.5% compound 2 eye drops”. For the same compound, in the series on Presbyopic subjects [1], the “duration of eye twitching” value came to 15 min; the “duration of eyelid and eyeball twitching” value is recorded as 15 min; the duration of headache lay in the range of 1 to 2 h; the “duration of slightly inflexible eye mobility” value lay in the range of 3 to 4 h. In addition, in the series on Presbyopic subjects [1], the “onset of eye twitching” value was 15 min; the “onset of eyelid and eyeball twitching” value came out at 15 min; the “time until eye irritation disappeared” value is given as 10 min; the “upper eyelid and eyeball adherence and mobility” value was “The upper eyelid and the eyeball were adhered tightly, and the mobility of the upper eyelid and eyeball was slightly weakened”.

As for `CN(CCCCCCCCCCN(C)C(=O)Oc1cccc([N+](C)(C)C)c1)C(=O)Oc1cccc([N+](C)(C)C)c1` [compound 3, Demecarium bromide], in the series with Presbyopic subjects [1], the “duration of eye discomfort and conjunctival congestion” value was 2 to 3 days; the ocular tolerance result is “Half of the subjects began to suffer from eye discomfort and conjunctival congestion after several hours”; the “share of the subjects with no eye discomfort” value is “half”.
